Measurements published in patent publication US7037644B1, “Means and methods for monitoring non-nucleoside reverse transcriptase inhibitor antiretroviral therapy and guiding therapeutic decisions in the treatment of HIV/AIDS” (ViroLogic, Inc., priority 1998, dated 2006).
Entries after “also recorded” stand apart in the source; their conditions may differ.

Assays:
Format in all cases: cell-based, HIV-1
K101E-G190A-RTV = experiment: Phenotypic susceptibility assay (site directed mutant RTV); conditions: for change in susceptibility (fold, IC50) vs wild type control RTV: K101E and G190A; for change in susceptibility: mutations at codons 101 and 190 (190A)
Source text: (§1) The resistance test vectors containing a functional luciferase gene cassette were constructed and host cells were transfected with the resistance test vector DNA. The resistant test vectors contained patient-derived reverse transcriptase and protease sequences that were either susceptible or resistant to the antiretroviral agents, such as nucleoside reverse transcriptase inhibitors, non-nucleoside reverse transcriptase inhibitors and protease inhibitors. The resistance test vector viral particles produced by transfecting the resistance test vector DNA into host cells, either in the presence or absence of protease inhibitors, were used to infect target host cells grown either in the absence of NRTI or NNRTI or in the presence of increasing concentrations of the drug. The amount of luciferase activity produced in infected target host cells in the presence of drug was compared to the amount of luciferase produced in infected target host cells in the absence of drug. Drug resistance was measured as the amount of drug required to inhibit by 50% the luciferase activity detected in the absence of drug (inhibitory concentration 50%, IC50). The IC50 values were determined by plotting percent drug inhibition vs. log10 drug concentration.
(§2) Host cells were seeded in 10-cm-diameter dishes and were transfected several days after plating with resistance test vector plasmid DNA and the envelope expression vector. Transfections were performed using a calcium-phosphate precipitation procedure. The cell culture media containing the DNA precipitate was replaced with fresh medium, from one to 24 hours, after transfection. Cell culture media containing resistance test vector viral particles was harvested one to four days after transfection and was passed through a […] filter before being stored at […]. HIV capsid protein (p24) levels in the harvested cell culture media were determined by an EIA method as described by the manufacturer (SIAC; Frederick, Md.). Before infection, target cells (293 and 293/T) were plated in cell culture media. Control infections were performed using cell culture media from mock transfections (no DNA) or transfections containing the resistance test vector plasmid DNA without the envelope expression plasmid. One to three or more days after infection the media was removed and cell lysis buffer (Promega) was added to each well. Cell lysates were assayed for luciferase activity (FIG. 3). The inhibitory effect of the drug was determined using the following equation: % luciferase inhibition=1−(RLUluc [drug]÷RLUluc)×100 where RLUluc [drug] is the relative light unit of luciferase activity in infected cells in the presence of drug and RLUluc is the Relative Light Unit of luciferase activity in infected cells in the absence of drug. IC50 values were obtained from the sigmoidal curves that were generated from the data by plotting the percent inhibition of luciferase activity vs. the log10 drug concentration. The drug inhibition curves are shown in (FIG. 3).
(§3) The K101E, K103N and G190A mutations were introduced alone and in combination into resistance test vectors using the mega-primer method for site-directed mutagenesis (Sakar and Sommar, Ibid.).

K103N-G190A-RTV = experiment: as above; conditions: for loss of susceptibility (fold, IC50) vs wild type control RTV: K103N and G190A; for change in susceptibility: mutations at codons 103 and 190
Source text: as §1, §2, §3

[1] = system: RTV-644 (RT K101E, G190S); experiment: Phenotypic susceptibility assay (patient RTV); conditions: for decrease in susceptibility (fold, IC50): patient RTV pool; for change in susceptibility: patient virus vs reference virus
Source text: as §1
as §2, with “Control infections were performed using cell culture media from mock transfections (no DNA) or transfections containing the resistance test vector plasmid DNA without the envelope expression plasmid. One to three or more days after infection the media was removed and cell lysis buffer (Promega) was added to each well. Cell lysates were assayed for luciferase activity (FIG. 3).” left out, “IC50 values were obtained from the sigmoidal curves that were generated from the data by plotting the percent inhibition of luciferase activity vs. the log10 drug concentration. The drug inhibition curves are shown in (FIG. 3).” left out
A resistance test vector was constructed as described in Example 1 from a patient sample designated 97-644. […] RTV-644 was then tested using the phenotypic susceptibility assay to determine accurately and quantitatively the level of susceptibility to a panel of anti-retroviral drugs. […] An IC50 was determined for each drug tested. […]

Y181I-RTV = experiment: Phenotypic susceptibility assay (site directed mutant RTV); conditions: for loss of susceptibility (fold, IC50) vs wild type control RTV: Y181I alone; for change in susceptibility: mutation at codon 181 (isoleucine)
Source text: as §1, §2
The Y181I mutationwas introduced into the resistance test vector using the mega-primer method for site-directed mutagenesis (Sakar and Sommar, Ibid). A resistance test vector containing the Y181I mutation (Y181I-RTV) was then tested using the phenotypic assay described earlier and the results were compared to those determined using a genetically defined resistance test vector that was wild type at position 181. We determined the pattern of phenotypic susceptibility to the NNRTIs, delavirdine, nevirapine and efavirenz, in the Y181I-RTV.

[2] = system: RTV-1033, patient 98-1033 (RT V106A, V189L, F227L); experiment: Phenotypic susceptibility assay (patient RTV); conditions: patient RTV pool
Source text: as §1, §2
A resistance test vector was constructed as described in Example 1 from a patient sample designated 98-1033. […]

G190A-RTV = experiment: Phenotypic susceptibility assay (site directed mutant RTV); conditions: for change in susceptibility: alanine at position 190, no other NNRTI mutations
Source text: as §1
as §2, with “IC50 values were obtained from the sigmoidal curves that were generated from the data by plotting the percent inhibition of luciferase activity vs. the log10 drug concentration. The drug inhibition curves are shown in (FIG. 3).” left out

K101E-RTV = experiment: as above; conditions: K101E alone
Source text: as §1, §2
(§4) The K101E and G190S mutations were introduced alone and in combination into resistance test vectors using the megaprimer method for site-directed mutagenesis (Sakar and Sommar, Ibid.). Resistance test vectors containing the K101E mutation (K101E-RTV), the G190S mutation (G190S-RTV) were then tested using the phenotypic assay described earlier and the results were compared to those determined using a genetically defined resistance test vector that was wild type at positions 101 and 190. We determined the pattern of phenotypic susceptibility to the NNRTIs, delavirdine, nevirapine and efavirenz, in all three vectors.

K101E-G190S-RTV = experiment: as above; conditions: for change in susceptibility (fold, IC50) vs wild type control RTV: K101E and G190S; for change in susceptibility: mutations at codons 101 and 190 (190S)
Source text: as §1, §2, §4

Row | Compound | change in susceptibility (fold, IC50) vs wild type control RTV (K101E-G190A-RTV) | change in susceptibility (K101E-G190A-RTV) | loss of susceptibility (fold, IC50) vs wild type control RTV (K103N-G190A-RTV) | change in susceptibility (K103N-G190A-RTV) | decrease in susceptibility (fold, IC50) [1] [fold] | change in susceptibility [1] | loss of susceptibility (fold, IC50) vs wild type control RTV (Y181I-RTV) [fold] | change in susceptibility (Y181I-RTV) | decrease in susceptibility (fold, IC50) [2] | change in susceptibility (G190A-RTV) | change in susceptibility (G190A-RTV; listed as delviridine) | loss of susceptibility (fold, IC50) vs wild type control RTV (K101E-RTV) [fold] | change in susceptibility (fold, IC50) vs wild type control RTV (K101E-G190S-RTV) | change in susceptibility (K101E-G190S-RTV) | change in susceptibility (fold, IC50) vs wild type control RTV (G190A-RTV; G190A alone) [fold]
1 | CC(C)Nc1cccnc1N1CCN(C(=O)c2cc3cc(NS(C)(=O)=O)ccc3[nH]2)CC1 [delavirdine] | 2 fold | slight loss of susceptibility; also recorded: no change | 40 fold | slight loss of susceptibility; also recorded: moderate decrease | 2.5 | little or no resistance | 20 | moderate decrease | 30 fold | increase | increased susceptibility | 5 | 1.4 fold | no change | –
2 | O=C1Nc2ccc(Cl)cc2[C@@](C#CC2CC2)(C(F)(F)F)O1 [efavirenz] | 120 fold | significant decrease | 215 fold | significant decrease | – | – | 1.4 | no change | 200 fold | – | – | 5 | greater than 250 fold | substantial decrease | 8
3 | Cc1ccnc2c1NC(=O)c1cccnc1N2C1CC1 [nevirapine] | greater than 800 fold | substantial decrease | greater than 800 fold | substantial decrease | 600 | resistant | 740 | significant decrease | greater than 800 fold | decrease | – | 12 | greater than 800 fold | substantial decrease | –
